Here are results for 29 compounds from US20250019382A1, “NOVEL INHIBITORS OF CYCLIN-DEPENDENT KINASES” (Origenis Gmbh, priority 2021, published 2025).

As usually defined, the IC50 is the concentration needed to halve the response being measured. High values mean lower potency, low ones higher potency.

The target of the assay is T1, CDK9/CyclinT1 (Homo sapiens, UniProt P50750).
T1 construct: purchased ProQinase/Reaction Biology, USA #0371-0345-1
T1 sequence (P50750 whole entry): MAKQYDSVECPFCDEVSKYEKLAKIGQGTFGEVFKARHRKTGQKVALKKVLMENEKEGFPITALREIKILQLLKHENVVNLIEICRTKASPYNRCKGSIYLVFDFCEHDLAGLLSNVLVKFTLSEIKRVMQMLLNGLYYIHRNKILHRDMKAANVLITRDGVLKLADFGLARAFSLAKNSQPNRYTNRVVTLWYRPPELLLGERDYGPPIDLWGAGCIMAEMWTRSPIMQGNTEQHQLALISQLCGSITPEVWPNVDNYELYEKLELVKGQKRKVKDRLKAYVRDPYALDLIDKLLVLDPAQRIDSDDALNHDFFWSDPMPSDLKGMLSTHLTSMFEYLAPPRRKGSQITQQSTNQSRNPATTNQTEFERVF
T1 sequence (O60563 whole entry partner): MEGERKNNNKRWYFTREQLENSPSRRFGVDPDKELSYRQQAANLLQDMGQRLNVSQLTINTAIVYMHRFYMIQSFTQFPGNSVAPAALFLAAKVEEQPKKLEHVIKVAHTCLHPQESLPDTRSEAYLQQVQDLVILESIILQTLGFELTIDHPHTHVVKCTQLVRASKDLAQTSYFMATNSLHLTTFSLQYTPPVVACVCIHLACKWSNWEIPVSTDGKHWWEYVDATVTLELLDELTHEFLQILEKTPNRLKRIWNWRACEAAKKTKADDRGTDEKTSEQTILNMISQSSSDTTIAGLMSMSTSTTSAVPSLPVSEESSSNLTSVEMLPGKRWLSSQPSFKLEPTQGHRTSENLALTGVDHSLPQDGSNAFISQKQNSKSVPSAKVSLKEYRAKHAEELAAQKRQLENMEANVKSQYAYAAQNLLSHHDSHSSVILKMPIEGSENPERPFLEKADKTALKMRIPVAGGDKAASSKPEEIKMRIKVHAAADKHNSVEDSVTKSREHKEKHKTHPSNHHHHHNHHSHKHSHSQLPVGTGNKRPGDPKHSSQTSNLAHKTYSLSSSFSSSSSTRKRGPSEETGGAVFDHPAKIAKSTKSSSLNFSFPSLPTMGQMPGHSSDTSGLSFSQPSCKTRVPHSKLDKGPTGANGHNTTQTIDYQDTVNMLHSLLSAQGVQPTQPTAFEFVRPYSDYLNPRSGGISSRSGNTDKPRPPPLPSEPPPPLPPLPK
The assay can be described thus: CDK9/T1 ADPGlo kinase assay. Type of assay: biochemical. Conditions: CDK9/CyclinT1 6 nM, ATP 10 microM, PDKtide 40 microM, 120 min RT. On the procedure: The testing compound was evaluated in 12 concentrations in a 1:3 dilution series, starting from 5microM as the highest concentration.
In a white 384 microplate (Greiner bio-one, Austria #784904,) with 2 microL of 3-fold concentrated CDK9/CyclinT1 (ProQinase/Reaction Biology, USA #0371-0345-1, LOT.: 012), final concentration (f.c.) 6 nM, in 1×kinase buffer, 2 microL of compound (3× fold concentrated in f.c. 1.66% DMSO/H2O) was added and incubated at Room Temperature (RT) for 10 min. Then 2 microL of Substrate/ATP-Mix (3×PDKtide f.c. 40 microM, SignalChem Biotech, Canada via Biozol, Eching, Germany #P10-58, LOT.: L2230-7 and 3×UltraPure ATP f.c. 10 microM (ADP Glo Kinase assay, Promega GmbH, Germany #V9102)) were added, mixed and incubated for 120 min at RT.
After incubation time, 5 microL of ADP Glo reagent (ready to use, ADP Glo Kinase assay, Promega GmbH, Germany #V9102) were added, mixed and incubated for 40 min at RT.
In the last step, 10 microL of ADP Glo Detection reagent (ready to use, ADP Glo Kinase assay, Promega GmbH, Germany #V9102) were added, mixed and incubated for 30 min at RT.
GloMax Discover GM3000 Reader (Promega GmbH, Germany 9700000249) was used for the readout.
The inhibitor concentration was plotted against the luminescence to determine the IC50 using XLFit 5.5 (IDBS, Guildford) to fit to a sigmoidal dose response curve with a variable slope.
A general note: ADP-Glo turns the ADP formed in a reaction into a luminescent signal.
In the case of `Fc1cccc(F)c1-c1nc(Nc2cnn(C3CCN(CC4CC4)CC3)c2)n2ncc(Cl)c2n1` [Example #100, 8-chloro-N-(1-(1-(cyclopropylmethyl)piperidin-4-yl)-1H-pyrazol-4-yl)-2-(2,6-difluorophenyl)pyrazolo[1,5-a][1,3,5]triazin-4-amine], the IC50 was under 20 nM.
For `Fc1cccc(Cl)c1-c1nc(Nc2cnn(C3CCN(C4CCOCC4)CC3)c2)n2ncc(Cl)c2n1` [Example #101, 8-chloro-2-(2-chloro-6-fluorophenyl)-N-(1-(1-(tetrahydro-2H-pyran-4-yl)piperidin-4-yl)-1H-pyrazol-4-yl)pyrazolo[1,5-a][1,3,5]triazin-4-amine] the value was under 20 nM.
`Clc1cccc(Cl)c1-c1nc(Nc2cnn(C3CCN(C4CCOCC4)CC3)c2)n2ncc(Cl)c2n1` [Example #102, 8-chloro-2-(2,6-dichlorophenyl)-N-(1-(1-(tetrahydro-2H-pyran-4-yl)piperidin-4-yl)-1H-pyrazol-4-yl)pyrazolo[1,5-a][1,3,5]triazin-4-amine] yielded an IC50 of under 200 nM.
On to `Fc1cccc(F)c1-c1nc(Nc2cnn(C3CCNCC3)c2)n2ncc(Cl)c2n1` [Example #103, 8-chloro-2-(2,6-difluorophenyl)-N-(1-(piperidin-4-yl)-1H-pyrazol-4-yl)pyrazolo[1,5-a][1,3,5]triazin-4-amine], for which the IC50 is under 20 nM.
Regarding `Cn1cc(Nc2nc(-c3c(F)cccc3F)nc3c(Cl)cnn23)cn1` [Example #104, 8-chloro-2-(2,6-difluorophenyl)-N-(1-methyl-1H-pyrazol-4-yl)pyrazolo[1,5-a][1,3,5]triazin-4-amine], the IC50 was under 20 nM.
On to `CCN(CCO)CCCC(C)Nc1nc(-c2c(F)cccc2F)nc2c(Cl)cnn12` (centres unmarked) [Example #107, 2-((4-((8-chloro-2-(2,6-difluorophenyl)pyrazolo[1,5-a][1,3,5]triazin-4-yl)amino)pentyl)(ethyl)amino)ethan-1-ol], for which the IC50 was under 20 nM.
As to `Fc1cccc(F)c1-c1nc(NC2CCC(N3CCOCC3)CC2)n2ncc(C(F)(F)F)c2n1` (centres unmarked) [Example #111, 2-(2,6-difluorophenyl)-N-((1r,4r)-4-morpholinocyclohexyl)-8-(trifluoromethyl)pyrazolo[1,5-a][1,3,5]triazin-4-amine], the IC50 was under 200 nM.
Turning to `N[C@H]1CC[C@@H](Nc2nc(-c3c(F)cccc3F)nc3c(Cl)cnn23)CC1` [Example #112, (1s,4s)-N1-(8-chloro-2-(2,6-difluorophenyl)pyrazolo[1,5-a][1,3,5]triazin-4-yl)cyclohexane-1,4-diamine], the IC50 is under 200 nM.
Compound `Fc1cccc(F)c1-c1nc(N[C@H]2CC[C@@H](N3CCCCC3)CC2)n2ncc(Cl)c2n1` [Example #113, 8-chloro-2-(2,6-difluorophenyl)-N-((1s,4s)-4-(piperidin-1-yl)cyclohexyl)pyrazolo[1,5-a][1,3,5]triazin-4-amine] yielded an IC50 of under 1000 nM.
`Cn1cc(Nc2nc(-c3c(F)cccc3F)nc3c(C(F)(F)F)cnn23)cn1` [Example #115, 2-(2,6-difluorophenyl)-N-(1-methyl-1H-pyrazol-4-yl)-8-(trifluoromethyl)pyrazolo[1,5-a][1,3,5]triazin-4-amine] yielded an IC50 of under 1000 nM.
`N[C@@H]1CC[C@@H](Nc2nc(-c3c(F)cccc3F)nc3c(Cl)cnn23)C1` [Example #116, (1R,3R)-N1-(8-chloro-2-(2,6-difluorophenyl)pyrazolo[1,5-a][1,3,5]triazin-4-yl)cyclopentane-1,3-diamine]: the concentration for half-maximal inhibition (IC50) was under 20 nM.
For `NC1CCC(Nc2nc(-c3c(F)cccc3F)nc3c(Cl)cnn23)C1` (centres unmarked) [Example #117, N1-(8-chloro-2-(2,6-difluorophenyl)pyrazolo[1,5-a][1,3,5]triazin-4-yl)cyclopentane-1,3-diamine] the value was under 20 nM; for `N[C@H]1CC[C@H](Nc2nc(-c3c(F)cccc3F)nc3c(C(F)(F)F)cnn23)CC1` [Example #118, (1r,4r)-N1-(2-(2,6-difluorophenyl)-8-(trifluoromethyl)pyrazolo[1,5-a][1,3,5]triazin-4-yl)cyclohexane-1,4-diamine], under 20 nM.
The compound `CN(C)[C@@H]1CC[C@@H](Nc2nc(-c3c(F)cccc3F)nc3c(Cl)cnn23)C1` [Example #119, (1R,3R)-N1-(8-chloro-2-(2,6-difluorophenyl)pyrazolo[1,5-a][1,3,5]triazin-4-yl)-N3,N3-dimethylcyclopentane-1,3-diamine] returned an IC50 of under 20 nM.
As for `CN(C)[C@H]1CC[C@H](Nc2nc(-c3c(F)cccc3F)nc3c(C(F)(F)F)cnn23)CC1` [Example #120, (1r,4r)-N1-(2-(2,6-difluorophenyl)-8-(trifluoromethyl)pyrazolo[1,5-a][1,3,5]triazin-4-yl)-N4,N4-dimethylcyclohexane-1,4-diamine], the IC50 was under 200 nM.
Consider `N[C@@H]1CC[C@H](Nc2nc(-c3c(F)cccc3F)nc3c(Cl)cnn23)C1` [Example #125, (1S,3R)-N1-(8-chloro-2-(2,6-difluorophenyl)pyrazolo[1,5-a][1,3,5]triazin-4-yl)cyclopentane-1,3-diamine], for which the half-inhibitory concentration (IC50) is under 200 nM.
Compound `OCCN[C@H]1CC[C@H](Nc2nc(-c3c(F)cccc3F)nc3c(Cl)cnn23)CC1` [Example #127, 2-(((1r,4r)-4-((8-chloro-2-(2,6-difluorophenyl)pyrazolo[1,5-a][1,3,5]triazin-4-yl)amino)cyclohexyl)amino)ethan-1-ol] registered an IC50 of under 20 nM.
In the case of `NC1CC(Nc2nc(-c3c(F)cccc3F)nc3c(Cl)cnn23)C1` (centres unmarked) [Example #129, (1r,3r)-N1-(8-chloro-2-(2,6-difluorophenyl)pyrazolo[1,5-a][1,3,5]triazin-4-yl)cyclobutane-1,3-diamine], the IC50 was under 20 nM.
`CN(C)[C@H]1C[C@H](Nc2nc(-c3c(F)cccc3F)nc3c(Cl)cnn23)C1` [Example #130, (1r,3r)-N1-(8-chloro-2-(2,6-difluorophenyl)pyrazolo[1,5-a][1,3,5]triazin-4-yl)-N3,N3-dimethylcyclobutane-1,3-diamine] yielded an IC50 of under 200 nM.
Regarding `CN(C)C1CCC(Nc2nc(-c3c(F)cc(F)cc3F)nc3c(Cl)cnn23)CC1` (centres unmarked) [Example #131, (1r,4r)-N1-(8-chloro-2-(2,4,6-trifluorophenyl)pyrazolo[1,5-a][1,3,5]triazin-4-yl)-N4,N4-dimethylcyclohexane-1,4-diamine], the IC50 was under 200 nM.
For `Cc1cc(F)c(-c2nc(NC3CCC(N(C)C)CC3)n3ncc(Cl)c3n2)c(F)c1` (centres unmarked) [Example #132, (1r,4r)-N1-(8-chloro-2-(2,6-difluoro-4-methylphenyl)pyrazolo[1,5-a][1,3,5]triazin-4-yl)-N4,N4-dimethylcyclohexane-1,4-diamine] the value was under 200 nM; for `CN(CCO)C1CCC(Nc2nc(-c3c(F)cccc3F)nc3c(Cl)cnn23)CC1` (centres unmarked) [Example #133, 2-(((1r,4r)-4-((8-chloro-2-(2,6-difluorophenyl)pyrazolo[1,5-a][1,3,5]triazin-4-yl)amino)cyclohexyl)(methyl)amino)ethan-1-ol], under 20 nM; for `CN(CCCO)C1CCC(Nc2nc(-c3c(F)cccc3F)nc3c(Cl)cnn23)CC1` (centres unmarked) [Example #134, 3-({4-[8-Chloro-2-(2,6-difluoro-phenyl)-pyrazolo[1,5-a][1,3,5]triazin-4-ylamino]-cyclohexyl}-methyl-amino)-propan-1-ol], under 20 nM.
`CN(CCCF)[C@H]1CC[C@H](Nc2nc(-c3c(F)cccc3F)nc3c(Cl)cnn23)CC1` [Example #135, (1r,4r)-N1-(8-chloro-2-(2,6-difluorophenyl)pyrazolo[1,5-a][1,3,5]triazin-4-yl)-N4-(3-fluoropropyl)-N4-methylcyclohexane-1,4-diamine] came in with an IC50 of under 20 nM.
As to `Fc1cccc(F)c1-c1nc(NC2CCC(N3CCCC3)CC2)n2ncc(Cl)c2n1` (centres unmarked) [Example #138, 8-chloro-2-(2,6-difluorophenyl)-N-((1r,4r)-4-(pyrrolidin-1-yl)cyclohexyl)pyrazolo[1,5-a][1,3,5]triazin-4-amine], the IC50 is under 20 nM.
For the compound `C#Cc1cnn2c(N[C@H]3CC[C@H](N4CCOCC4)CC3)nc(-c3c(F)cccc3F)nc12` [Example #139, 2-(2,6-difluorophenyl)-8-ethynyl-N-((1r,4r)-4-morpholinocyclohexyl)pyrazolo[1,5-a][1,3,5]triazin-4-amine], the IC50 was under 200 nM.
Compound `Fc1cccc(F)c1-c1nc(N[C@H]2CC[C@H](N3CCOCC3)CC2)n2ncc(I)c2n1` [Example #140, 2-(2,6-difluorophenyl)-8-iodo-N-((1r,4r)-4-morpholinocyclohexyl)pyrazolo[1,5-a][1,3,5]triazin-4-amine] yielded an IC50 of under 200 nM.
As for `CN1CCC(Nc2nc(-c3c(F)cccc3F)nc3c(Cl)cnn23)CC1` [Example #141, 8-chloro-2-(2,6-difluorophenyl)-N-(1-methylpiperidin-4-yl)pyrazolo[1,5-a][1,3,5]triazin-4-amine], the IC50 is under 20 nM.
Compound `CN1CCN([C@H]2CC[C@H](Nc3nc(-c4c(F)cccc4F)nc4c(Cl)cnn34)CC2)CC1` [Example #144, 8-chloro-2-(2,6-difluorophenyl)-N-((1r,4r)-4-(4-methylpiperazin-1-yl)cyclohexyl)pyrazolo[1,5-a][1,3,5]triazin-4-amine] gave an IC50 of under 20 nM.
